Experimental data taken from ChEMBL document CHEMBL1201862, “PubChem BioAssay data set” (2004).
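1) Cells in 96-well plates. 2) Compound, 48 h, 5 concentrations. 3) Linear interpolation between surrounding doses. 4) Unreached endpoint = highest concentration. Here, GI50 denotes the concentration required for 50% inhibition of growth.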 Activity calls are given as the source filed them. No stated cut-off is given here; in the data, active = GI50 up to about 1.1 µM and inactive = higher.

How the values were obtained:
Assay in all cases: NCI-60 cell line screen, 48 h
A498 = system: A498
EKVX = system: EKVX
HCC 2998 = system: HCC 2998
HOP-62 = system: HOP-62
HT-29 = system: HT-29
IGROV-1 = system: IGROV-1
LOX IMVI = system: LOX IMVI
LXFL 529 = system: LXFL 529
M14 = system: M14
NCI-H522 = system: NCI-H522
OVCAR-5 = system: OVCAR-5
SF-268 = system: SF-268
SF-295 = system: SF-295
SR = system: SR
U-251 = system: U-251
SNB-75 = system: SNB-75
BT-549 = system: BT-549
NCI/ADR-RES = system: NCI/ADR-RES
PC-3 = system: PC-3
T47D = system: T47D

Measured: GI50

Fc1ccccc1C1CC(c2ccc3ccccc3c2)=Nc2ccccc2S1 (stereo unspecified)
inactive: A498 > 100 µM | EKVX > 100 µM | HCC 2998 4.27 µM | HOP-62 > 100 µM | HT-29 > 100 µM | IGROV-1 > 100 µM | LOX IMVI > 100 µM | LXFL 529 > 100 µM | M14 > 100 µM | NCI-H522 > 100 µM | OVCAR-5 > 100 µM | SF-268 > 100 µM | SF-295 > 100 µM | SR > 100 µM | U-251 > 100 µM

Cc1cccc(NC(=O)CC2C(=O)Nc3ccccc3S2(=O)=O)c1C (stereo unspecified)
inactive: A498 30.3 µM | EKVX > 100 µM | HCC 2998 28.1 µM | HOP-62 22.6 µM | HT-29 33.2 µM | IGROV-1 26.1 µM | LXFL 529 36.9 µM | M14 25.4 µM | NCI-H522 16.6 µM | OVCAR-5 > 100 µM | SF-268 33.2 µM | SF-295 58.1 µM | SNB-75 16.9 µM | SR 11.1 µM | U-251 27 µM

C[C@]12C=CC(=O)C=C1[C@@H](F)C[C@H]1[C@@H]3CC[C@](O)(C(=O)CO)[C@@]3(C)C[C@H](O)[C@@]12F
inactive: A498 > 100 µM | BT-549 > 100 µM | EKVX > 64.4 µM | HCC 2998 > 100 µM | HOP-62 > 100 µM | HT-29 > 100 µM | IGROV-1 > 100 µM | LOX IMVI > 100 µM | LXFL 529 > 100 µM | M14 > 100 µM | NCI-H522 > 100 µM | NCI/ADR-RES > 100 µM | OVCAR-5 > 59.6 µM | PC-3 > 100 µM | SF-268 > 100 µM | SF-295 > 100 µM | SNB-75 > 100 µM | SR > 100 µM | T47D > 100 µM | U-251 > 100 µM

C/C(=N\Nc1ccccc1)c1sc(-c2nc(C)c(/C(C)=N/Nc3ccccc3)s2)nc1C
inactive: A498 > 46.1 µM | EKVX 24.7 µM | HCC 2998 7.93 µM | HT-29 9.06 µM | IGROV-1 14.1 µM | LOX IMVI 7.96 µM | LXFL 529 7.06 µM | M14 7.71 µM | NCI-H522 18.1 µM | OVCAR-5 51.3 µM | SF-295 9.98 µM | SNB-75 23.4 µM | SR 25.6 µM | U-251 37.1 µM

O=C(NNC(=O)/C(=C/c1cccc([N+](=O)[O-])c1)NC(=O)c1ccccc1)Nc1ccc(Cl)cc1
inactive: A498 10.6 µM | EKVX 18.7 µM | HCC 2998 13.1 µM | HOP-62 14.3 µM | HT-29 14.1 µM | IGROV-1 11.9 µM | LOX IMVI 15.6 µM | LXFL 529 10.6 µM | M14 12.8 µM | NCI-H522 12.3 µM | OVCAR-5 18.3 µM | SF-268 15.1 µM | SF-295 18.7 µM | SNB-75 13.6 µM | SR 7.74 µM | U-251 14.2 µM

COC(=O)c1c/c(=N\NC(=O)CC(=O)Nc2ccccc2Cl)c2ccccc2o1
inactive: A498 > 10 µM | EKVX > 100 µM | HCC 2998 65.3 µM | HOP-62 > 100 µM | HT-29 > 100 µM | IGROV-1 > 100 µM | LOX IMVI > 100 µM | LXFL 529 > 100 µM | M14 > 100 µM | NCI-H522 > 100 µM | OVCAR-5 > 100 µM | SF-268 > 100 µM | SF-295 > 100 µM | SNB-75 > 100 µM | SR > 100 µM | U-251 > 100 µM

[O-][Cl+3]([O-])([O-])[O-].c1ccc(C[P+]2(c3ccccc3)CCCCC2)cc1
inactive: A498 > 100 µM | EKVX > 100 µM | HCC 2998 70.8 µM | HOP-62 > 100 µM | HT-29 72.8 µM | IGROV-1 > 100 µM | LOX IMVI 85.1 µM | LXFL 529 38.3 µM | M14 > 100 µM | NCI-H522 34.5 µM | OVCAR-5 > 100 µM | SF-295 > 100 µM | SNB-75 88.9 µM | SR 86.7 µM | U-251 38.4 µM
